Test results published in patent EP4785943A1, “SOLID DISPERSION, PHARMACEUTICAL COMPOSITION, AND PREPARATION METHOD AND USE THEREFOR” (4B Technologies (Beijing) Co., Limited, priority 2023, dated 2025).
In brackets after ≈: the same amount, converted by molar mass. Where two headings read alike, the source gives them in different places.

Assay: Solubility testing in FaSSIF, FeSSIF and SGF (37°C, HPLC of filtrate)
Type: physicochemical
Conditions: for pH after 2 h: pH of the 2-hour filtrate; for solubility at 0.5 h / solubility at 2 h: thermodynamic from solid, 37°C; for solubility at 0.5 h: read-out: Solubility (mg/mL) 0.5 h; for solubility at 2 h: read-out: Solubility (mg/mL) 2 h
Protocol: Preparation of FaSSIF stock solution with pH buffer: Approximately 621 mg of NaCl, approximately 345 mg of NaH2PO4, and approximately 41.9 mg of NaOH are weighed into a 100 mL volumetric flask, and dissolved in water to approximately 5 cm below the mark. After cooling and pH adjustment, the resulting mixture is diluted to volume with water, and mixed thoroughly with shaking.
FeSSIF stock solution: Approximately 866 mg of glacial acetic acid, approximately 406 mg of NaOH, and approximately 1184 mg of NaCl are weighed into a 100 mL volumetric flask, and dissolved in water to approximately 5 cm below the mark. After cooling and pH adjustment, the resulting mixture is diluted to volume with water, and mixed thoroughly with shaking.
SGF solution: Approximately 202 mg of NaCl and approximately 321 mg of pepsin are weighed into a 100 mL volumetric flask, followed by addition of 700 µL of HCl, and dissolved in water to approximately 5 cm below the mark. After cooling, the resulting mixture is diluted to volume with water, and mixed thoroughly with shaking.
(§1) FaSSIF solution: FaSSIF stock solution is transferred to a 100 mL volumetric flask, followed by addition of approximately 225 mg of FaSSIF powder, and dissolved in FaSSIF stock solution to approximately 5 cm below the mark. After cooling, the resulting mixture is diluted to volume with FaSSIF stock solution, mixed thoroughly with shaking, and allowed to stand for 2 hours before use.
as §1, with “FeSSIF” for “FaSSIF”, “1122” for “225”, “solution, and” for “solution,”, “shaking.” for “shaking, and allowed to stand for 2 hours before use.”
Approximately 20 mg of sample is weighed into a 4 mL vial, followed by addition of 4 mL of different solvents (FaSSIF, FeSSIF, SGF). After the vial is equipped with a magnetic stir bar, the mixture is stirred at 37°C for 2 hours, during which samples are taken at 0.5 hours and 2 hours. After filtration, the sample concentration in the filtrate is determined by HPLC. The pH of the 2-hour filtrate and the crystal form of the remaining solid are also measured.

In the case of `COc1cc(Nc2ccc3ncc(N4CCOCC4)nc3c2C#N)ccc1OCc1ccc(C)nc1` [Compound 1, 6-((3-methoxy-4-((6-methylpyridin-3-yl)methoxy)phenyl)amino)-3-morpholinoquinoxaline-5-carbonitrile], the “solubility in aqueous media” value (background statement) is reported as “poorly soluble”, the “pH after 2 h” value (FaSSIF) is reported as 6.58 and the “pH after 2 h” value (FeSSIF) is reported as 5.02. The “pH after 2 h” value (SGF) was 1.28, the solubility at 0.5 h (simulated gastric fluid, SGF) was 0.699 mg/mL (≈ 1450 µM) and the solubility at 2 h (simulated gastric fluid, SGF) was 0.524 mg/mL (≈ 1090 µM). It also gave a solubility at 0.5 h (FaSSIF) of 0.00026 mg/mL (≈ 0.539 µM), a solubility at 2 h (FaSSIF) of 0.00026 mg/mL (≈ 0.539 µM) and a solubility at 0.5 h (FeSSIF) of 0.00313 mg/mL (≈ 6.49 µM). The solubility at 2 h (FeSSIF) was 0.00293 mg/mL (≈ 6.07 µM).
